From ChEMBL document CHEMBL1130437, “Discovery of selective dopamine D4 receptor antagonists: 1-Aryloxy-3-(4-aryloxypiperidinyl)-2-propanols” (Bioorg Med Chem Lett, 1997)

Columns and labels:
Assay type in all cases: cell-based
[1] = target: T1, D(4) dopamine receptor (Homo sapiens, UniProt P21917); assay: Binding affinity against human cloned D4 receptor transfected in CHO-K1 cells by [3H]- spiperone displacement.
T1 sequence (P21917 whole entry): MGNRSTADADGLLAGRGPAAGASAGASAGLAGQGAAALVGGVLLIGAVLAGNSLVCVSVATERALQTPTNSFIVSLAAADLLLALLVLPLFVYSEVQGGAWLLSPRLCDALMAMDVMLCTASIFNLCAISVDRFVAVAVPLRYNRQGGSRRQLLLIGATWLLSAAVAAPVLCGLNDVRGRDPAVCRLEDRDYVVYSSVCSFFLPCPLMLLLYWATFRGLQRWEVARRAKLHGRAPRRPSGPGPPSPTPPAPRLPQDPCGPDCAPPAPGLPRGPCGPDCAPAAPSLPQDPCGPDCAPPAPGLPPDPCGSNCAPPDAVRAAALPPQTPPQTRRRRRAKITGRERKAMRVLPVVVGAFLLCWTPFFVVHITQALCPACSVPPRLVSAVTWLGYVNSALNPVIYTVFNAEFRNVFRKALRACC

[2] = target: D(2) dopamine receptor (Homo sapiens, UniProt P14416); assay: Binding affinity against cloned human D2 receptor transfected in CHO-K1 cells using [3H]- spiperone as radioligand.
[3] = target: D(3) dopamine receptor (Homo sapiens, UniProt P35462); assay: Binding affinity against cloned human D3 receptor transfected in CHO-K1 cells using [3H]- spiperone as radioligand.
Chain of D(3) dopamine receptor (P35462 whole entry): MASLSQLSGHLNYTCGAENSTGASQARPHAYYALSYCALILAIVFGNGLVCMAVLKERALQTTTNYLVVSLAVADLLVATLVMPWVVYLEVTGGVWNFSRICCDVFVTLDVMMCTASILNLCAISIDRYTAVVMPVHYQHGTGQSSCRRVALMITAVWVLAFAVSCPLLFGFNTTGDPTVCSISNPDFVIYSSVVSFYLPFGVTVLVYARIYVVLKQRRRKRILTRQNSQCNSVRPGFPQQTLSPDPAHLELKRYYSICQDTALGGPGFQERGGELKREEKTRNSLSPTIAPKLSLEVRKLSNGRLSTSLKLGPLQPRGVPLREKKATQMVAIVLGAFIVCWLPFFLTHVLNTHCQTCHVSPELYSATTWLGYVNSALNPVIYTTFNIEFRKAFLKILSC

Chain of D(2) dopamine receptor (P14416 whole entry): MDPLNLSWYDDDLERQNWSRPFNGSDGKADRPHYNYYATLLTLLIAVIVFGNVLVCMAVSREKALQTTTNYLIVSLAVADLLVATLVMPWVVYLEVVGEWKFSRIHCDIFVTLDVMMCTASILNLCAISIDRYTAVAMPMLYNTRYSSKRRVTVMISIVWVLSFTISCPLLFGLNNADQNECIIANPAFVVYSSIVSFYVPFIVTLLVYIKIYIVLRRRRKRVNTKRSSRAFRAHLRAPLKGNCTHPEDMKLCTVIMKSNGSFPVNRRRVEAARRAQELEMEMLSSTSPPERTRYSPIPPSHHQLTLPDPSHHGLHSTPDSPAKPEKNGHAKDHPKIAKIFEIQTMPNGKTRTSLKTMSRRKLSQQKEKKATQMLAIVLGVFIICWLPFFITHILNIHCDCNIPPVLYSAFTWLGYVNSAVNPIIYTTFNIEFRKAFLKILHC

SMILES | Ki [1] [µM] | Ki [2] [µM] | Ki [3] [µM]
OC(COc1cccc2ccccc12)CN1CCC(Cc2ccc(Cl)cc2)CC1 (stereo not given) | 0.045 | – | –
COC(COc1cccc2ccccc12)CN1CCC(Cc2ccccc2)CC1 (stereo not given) | 0.045 | – | –
OC(COc1cccc2ccccc12)CN1CCC(Oc2ccccc2)CC1 (stereo not given) | 0.018 | 2.34 | –
Cc1ccc(CC2CCN(CC(O)COc3cccc4ccccc34)CC2)cc1 (stereo not given) | 0.052 | – | –
COc1ccc(CC2CCN(CC(O)COc3cccc4ccccc34)CC2)cc1 (stereo not given) | 0.074 | – | –
CC(COc1cccc2ccccc12)CN1CCC(Cc2ccccc2)CC1 (stereo not given) | 0.072 | – | –
OC(COc1cccc2ccccc12)CN1CCC(Cc2ccc(F)cc2)CC1 (stereo not given) | 0.032 | – | –
OC(COc1cccc2ccccc12)CN1CCC(Cc2ccccc2)CC1 (stereo not given) | 0.026 | 1.44 | –
COc1ccc(OCC(O)CN2CCC(Cc3ccccc3)CC2)cc1 (stereo not given) | 0.123 | – | –
OC(COc1ccc(Cl)cc1)CN1CCC(Cc2ccccc2)CC1 (stereo not given) | 0.018 | – | –
OC(COc1ccccc1)CN1CCC(Cc2ccccc2)CC1 (stereo not given) | 0.034 | – | –
OC(COc1ccccc1)CN1CCC(Oc2ccccc2)CC1 (racemic) | 0.0036 | 0.911 | 0.537
O[C@@H](COc1ccccc1)CN1CCC(Oc2ccccc2)CC1 | 0.002 | 0.244 | 0.22
O=[N+]([O-])c1ccc(OCC(O)CN2CCC(Cc3ccccc3)CC2)cc1 (stereo not given) | 0.059 | – | –
OC(COc1cccc2ccccc12)CN1CCC(Sc2ccccc2)CC1 (stereo not given) | 0.032 | – | –
c1ccc(CC2CCN(CCCOc3cccc4ccccc34)CC2)cc1 | 0.05 | – | –
O[C@H](COc1ccccc1)CN1CCC(Oc2ccccc2)CC1 | 0.0116 | 0.709 | 0.457
